Literature values, collected in PubChem BioAssay AID1259409 (Chemical Carcinogenesis Research Information System (CCRIS), 2018).

Tested on: rodent chemically induced tumor inhibition, incidence and multiplicity
Assay: CCRIS tumor inhibitor studies
Details: for outcome: Carcinogen: NONE, Strain/Sex: APC/MIN/MALE

NCCCC(N)(C(=O)O)C(F)F (centres undefined)
tumour outcome (control, treated, inhibition, significance) (Carcinogen: N-METHYL-N-NITROSOUREA, 684-93-5, Dose [Inhibitor]: 0.5 ML OF 2% AGENT IN 0.9% SALINE SOLUTION TWICE IN WK 1 THEN ONCE 2 HR POST CARCINOGEN TREATMENT THEN TWICE IN WK 2 (ST, Route [Inhibitor]: INTRAVESICAL, Species: RAT, Strain/Sex: F344/MALE, Target Tissue: Type of Lesion: BLADDER: CARCINOMA, Dose [Carcinogen]: 0.25 MG IN 0.5 ML OF 0.9% SALINE SOLUTION ONCE, Promoter: URINE): 31/36 (86%), 27/38 (71%), 17%, not calculated
tumour outcome (control, treated, inhibition, significance) (Carcinogen: N-METHYL-N-NITROSOUREA, 684-93-5, Dose [Inhibitor]: 2% IN URINE 2/WK FOR 30 WK BEGINNING 1 WK POST CARCINOGEN DOSE (STUDY DURATION: 35 WK), Route [Inhibitor]: INTRAVESICAL, Species: RAT, Strain/Sex: F344/MALE, Target Tissue: Type of Lesion: BLADDER: CARCINOMA, Dose [Carcinogen]: 0.25 MG IN 0.5 ML OF 0.9% SALINE SOLUTION ONCE, Promoter: URINE): 25/36 (69%), 13/35 (37%), 46%, p<0.025
tumour outcome (control, treated, inhibition, significance) (Carcinogen: N-METHYL-N-NITROSOUREA, 684-93-5, Dose [Inhibitor]: 2% IN URINE 2/WK FOR 41 WK BEGINNING 1 WK POST CARCINOGEN DOSE (STUDY DURATION: 50 WK), Route [Inhibitor]: INTRAVESICAL, Species: RAT, Strain/Sex: F344/MALE, Target Tissue: Type of Lesion: BLADDER: CARCINOMA, Dose [Carcinogen]: 0.25 MG IN 0.5 ML OF 0.9% SALINE SOLUTION ONCE, Promoter: URINE): 31/36 (86%), 30/38 (79%), 8%, not calculated
outcome (Dose [Inhibitor]: 0.5% IN DRINKING WATER FOR 2 MONTHS (STUDY DURATION: 2 MONTHS), Route [Inhibitor]: ORAL, Species: MOUSE, Target Tissue: Type of Lesion: DISTAL SMALL INTESTINE: TUMOR, Promoter: NONE): 10.38, 3.67, 65%, p<0.001
outcome (Dose [Inhibitor]: 0.5% IN DRINKING WATER FOR 2 MONTHS (STUDY DURATION: 2 MONTHS), Route [Inhibitor]: ORAL, Species: MOUSE, Target Tissue: Type of Lesion: MIDDLE SMALL INTESTINE: TUMOR, Promoter: NONE): 23.75, 19.80, 17%, not significant
outcome (Dose [Inhibitor]: 0.5% IN DRINKING WATER FOR 2 MONTHS (STUDY DURATION: 2 MONTHS), Route [Inhibitor]: ORAL, Species: MOUSE, Target Tissue: Type of Lesion: PROXIMAL SMALL INTESTINE: TUMOR, Promoter: NONE): 7.63, 6.40, 16%, not significant
outcome (Dose [Inhibitor]: 1.0% IN DRINKING WATER FOR 2 MONTHS (STUDY DURATION: 2 MONTHS), Route [Inhibitor]: ORAL, Species: MOUSE, Target Tissue: Type of Lesion: DISTAL SMALL INTESTINE: TUMOR, Promoter: NONE): 10.38, 1.73, 83%, p<0.001
outcome (Dose [Inhibitor]: 1.0% IN DRINKING WATER FOR 2 MONTHS (STUDY DURATION: 2 MONTHS), Route [Inhibitor]: ORAL, Species: MOUSE, Target Tissue: Type of Lesion: MIDDLE SMALL INTESTINE: TUMOR, Promoter: NONE): 23.75, 13.80, 42%,p<0.01
tumour outcome (control, treated, inhibition, significance) (Carcinogen: UV-A (20%), UV-B (80%) (WESTINGHOUSE FS320 SUNLAMP IN 280-400 NM), Dose [Inhibitor]: 0, 0.4% IN DRINKING WATER FOR 8 WK BEGINNING 22 WK POST CARCINOGEN FIRST DOSE (STUDY DURATION: 30 WK), Route [Inhibitor]: ORAL, Species: MOUSE, Strain/Sex: SKH:HR-1-HBR/FEMALE, Target Tissue: Type of Lesion: SKIN: TUMOR, Dose [Carcinogen]: 90 MJ/CM2 3 TIMES/WK, DOSE INCREASED BY 10% UNTIL REACHED 175 MJ/CM^2, BEGINNING 2 D POST AGENT DOSE, TREATMENT WS STOPP, Promoter: NONE): ?/? (100%), ?/? (95%), 5%, data presented graphically, not calculated
tumour outcome (control, treated, inhibition, significance) (Carcinogen: UV-A (20%), UV-B (80%) (WESTINGHOUSE FS320 SUNLAMP IN 280-400 NM), Dose [Inhibitor]: 0, 0.4% IN DRINKING WATER FOR 18 WK BEGINNING 12 WK POST CARCINOGEN FIRST DOSE (STUDY DURATION: 30 WK), Route [Inhibitor]: ORAL, Species: MOUSE, Strain/Sex: SKH:HR-1-HBR/FEMALE, Target Tissue: Type of Lesion: SKIN: TUMOR, Dose [Carcinogen]: 90 MJ/CM2 3 TIMES/WK, DOSE INCREASED BY 10% UNTIL REACHED 175 MJ/CM^2, BEGINNING 2 D POST AGENT DOSE, TREATMENT WS STOPP, Promoter: NONE): ?/? (100%), ?/? (100%), 0%, data presented graphically, not calculated
tumour outcome (control, treated, inhibition, significance) (Carcinogen: UV-A (20%), UV-B (80%) (WESTINGHOUSE FS320 SUNLAMP IN 280-400 NM), Dose [Inhibitor]: 0, 0.4% IN DRINKING WATER FOR DURATION OF STUDY (STUDY DURATION: 30 WK), Route [Inhibitor]: ORAL, Species: MOUSE, Strain/Sex: SKH:HR-1-HBR/FEMALE, Target Tissue: Type of Lesion: SKIN: TUMOR, Dose [Carcinogen]: 90 MJ/CM2 3 TIMES/WK, DOSE INCREASED BY 10% UNTIL REACHED 175 MJ/CM^2, BEGINNING 2 D POST AGENT DOSE, TREATMENT WS STOPP, Promoter: NONE): ?/? (100%), ?/? (73%), 27%, data presented graphically, not calculated
tumour outcome (control, treated, inhibition, significance) (Carcinogen: UVB IRRADIATION, Dose [Inhibitor]: 0, 1% IN DRINKING WATER FOR DURATION OF STUDY BEGINNING 3 WK PRIOR TO CARCINOGEN TREATMENT (STUDY DURATION: 36 WK), Route [Inhibitor]: ORAL, Species: MOUSE, Strain/Sex: BALB/FEMALE, Target Tissue: Type of Lesion: SKIN: TUMOR, Dose [Carcinogen]: 1273 KJM2 TOTAL DOSE ADMINISTERED IN 30 MIN TREATMENTS 5 D/WK, Promoter: NONE USED): 38%, 9%, 76%, p=0.025
tumour outcome (control, treated, inhibition, significance) (Dose [Inhibitor]: 0, 2% IN DRINKING WATER FOR 3 WK THEN REDUCED TO 1% FOR DURATION OF STUDY (STUDY DURATION: 9 MO), Route [Inhibitor]: ORAL, Species: RAT, Strain/Sex: F344/MALE, Target Tissue: Type of Lesion: LIVER: HEPATOCELLULAR CARCINOMA, Dose [Carcinogen]: 25 UG IN 0.2 ML DMSO 5 D/WK FOR 4 WK, Promoter: NONE USED): 40%, 16%, 60%, p<0.01
tumour outcome (control, treated, inhibition, significance) (Dose [Inhibitor]: 0, 2% IN DRINKING WATER FOR 3 WK THEN REDUCED TO 1% FOR DURATION OF STUDY ADMINISTERED TO RATS MAINTAINED ON CHOLINE-DEF, Route [Inhibitor]: ORAL, Species: RAT, Strain/Sex: F344/MALE, Target Tissue: Type of Lesion: LIVER: HEPATOCELLULAR CARCINOMA, Dose [Carcinogen]: 25 UG IN 0.2 ML DMSO 5 D/WK FOR 4 WK, Promoter: NONE USED): 71%, 28%, 61%, not calculated
